Test results: patent publication US20190343828A1, “CAMPTOTHECIN PEPTIDE CONJUGATES” (SEATTLE GENETICS, INC., priority 2018, published 2019)
pIC50: −log10 of the molar value.

Columns and labels:
[1] = test system: melanoma cells (SK-MEL-5); test: In vitro cytotoxicity, CellTiter-Glo 96 h, SK-MEL-5; details: Homo sapiens, SK-MEL-5, read-out: Cytotoxic potency as free drug, IC50, SK-MEL-5
Procedure: (§1) In vitro potency was assessed on multiple cancer cell lines. All cell lines were authenticated by STR profiling at IDEXX Bioresearch and cultured for no more than 2 months after resuscitation. Cells cultured in log-phase growth were seeded for 24 hours in 96-well plates containing 150 μl RPMI 1640 supplemented with 20% FBS. Serial dilutions of antibody-drug conjugates in cell culture media were prepared at 4× working concentrations, and 50 μl of each dilution was added to the 96-well plates. Following addition of test articles, cells were incubated with test articles for 4 days at 37° C. After 96 hours, growth inhibition was assessed by CellTiter-Glo® (Promega, Madison, Wis.) and luminescence was measured on a plate reader.
Cell viability was determined by CellTiter-Glo staining after 96 h exposure to ADC. […] Ag1 is an antibody targeting a ubiquitous and readily internalizable antigen on cancer cells, Ag2 is cAC10 antibody targeting CD30(+) cancer cells, Ag3 is h1F6 antibody targeting CD70(+) cancer cells, Ag4 is hMEM102 antibody targeting CD48(+) cancer cells, Ag5 is h20F3 antibody targeting NTB-A expressing cancer cells, and h00 is a non-binding control antibody.

[2] = test system: Burkitt's lymphoma cells (Ramos); test: In vitro cytotoxicity, CellTiter-Glo 96 h, Ramos; details: Homo sapiens, read-out: Cytotoxic potency as free drug, IC50, Ramos
Procedure: as §1
(§2) Cell viability was determined by CellTiter-Glo staining after 96 h exposure to ADC.

[3] = test system: multiple drug resistant acute promyelocytic leukemia cells (HL-60/RV); test: In vitro cytotoxicity, CellTiter-Glo 96 h, HL60/RV; details: Homo sapiens, HL-60, read-out: Cytotoxic potency (IC50 class), HL60/RV
Procedure: as §1, §2

[4] = test system: pancreatic cancer cells (BxPC3); test: In vitro cytotoxicity, CellTiter-Glo 96 h, BxPC3; details: Homo sapiens, BXPC-3, read-out: Cytotoxic potency (IC50 class), BxPC3
Procedure: as §1, §2

[5] = test system: Hodgkin's lymphoma cells (L540cy); test: In vitro cytotoxicity, CellTiter-Glo 96 h, L540cy; details: read-out: Cytotoxic potency (IC50 class), L540cy
[6] = test system: multiple myeloma cells (MM.1R); test: In vitro cytotoxicity, CellTiter-Glo 96 h, MM.1R; details: read-out: Cytotoxic potency (IC50 class), MM.1R
[7] = test system: B-lymphocyte cancer cells (SU-DHL-4); test: In vitro cytotoxicity, CellTiter-Glo 96 h, SU-DHL-4; details: Homo sapiens, SU-DHL-4, read-out: Cytotoxic potency as free drug, IC50, SU-DHL-4
[8] = test system: acute promyelocytic leukemia cells (HL-60); test: In vitro cytotoxicity, CellTiter-Glo 96 h, HL-60; details: Homo sapiens, HL-60, read-out: Cytotoxic potency (IC50 class), HL-60
[9] = test system: B-lymphocyte cancer cells (U266); test: In vitro cytotoxicity, CellTiter-Glo 96 h, U266; details: Homo sapiens, U-266, read-out: Cytotoxic potency as free drug, IC50, U266
[10] = test system: acute myeloid leukemia cells (MOLM13); test: In vitro cytotoxicity, CellTiter-Glo 96 h, MOLM13; details: Homo sapiens, MOLM-13, read-out: Cytotoxic potency as free drug, IC50, MOLM13
Procedure: as §1, §2

[11] = test system: renal carcinoma cells (786-O); test: In vitro cytotoxicity, CellTiter-Glo 96 h, 786-O; details: Homo sapiens, 786-0, read-out: Cytotoxic potency (IC50 class), 786-O
Procedure: as §1, §2

SMILES | pIC50 [1] | pIC50 [2] | pIC50 [3] | pIC50 [4] | pIC50 [5] | pIC50 [6] | pIC50 [7] | pIC50 [8] | pIC50 [9] | pIC50 [10] | pIC50 [11]
CC[C@@]1(O)C(=O)OCc2c1cc1n(c2=O)Cc2c-1nc1cc3c(cc1c2CN)OCO3 [Compound 4, 7-methylamino Derivative-methylenedioxy camptothecin] | 8.00 to 9.00 | 8.00 to 9.00 | 7.00 to 8.00 | 8.00 to 9.00 | 8.00 to 9.00 | 8.00 to 9.00 | 9.00 to 10.00 | 7.00 to 8.00 | 8.00 to 9.00 | 8.00 to 9.00 | 8.00 to 9.00
CC[C@@]1(O)C(=O)OCc2c1cc1n(c2=O)Cc2c-1nc1cc3c(cc1c2CNC(=O)CO)OCO3 [Compound 4a] | 8.00 to 9.00 | 7.00 to 8.00 | 7.00 to 8.00 | 7.00 to 8.00 | 7.00 to 8.00 | 8.00 to 9.00 | 7.00 to 8.00 | 7.00 to 8.00 | 8.00 to 9.00 | 8.00 to 9.00 | 7.00 to 8.00
CC[C@@]1(O)C(=O)OCc2c1cc1n(c2=O)Cc2c-1nc1cc3c(cc1c2CNC(=O)CN)OCO3 [Compound 4b] | 6.00 to 7.00 | 7.00 to 8.00 |  | 6.00 to 7.00 | 7.00 to 8.00 | 7.00 to 8.00 | 7.00 to 8.00 | 6.00 to 7.00 | 7.00 to 8.00 | 7.00 to 8.00 | 6.00 to 7.00
CC[C@@]1(O)C(=O)OCc2c1cc1n(c2=O)Cc2c-1nc1cc3c(cc1c2CN(C)C(=O)CN)OCO3 [Compound 4c] | 6.00 to 7.00 | 8.00 to 9.00 | 6.00 to 7.00 | 6.00 to 7.00 | 7.00 to 8.00 | 7.00 to 8.00 | 7.00 to 8.00 | 6.00 to 7.00 | 7.00 to 8.00 | 8.00 to 9.00 | 7.00 to 8.00
CC[C@@]1(O)C(=O)OCc2c1cc1n(c2=O)Cc2c-1nc1cc3c(cc1c2CNC(=O)CCN)OCO3 [Compound 4d] | 7.00 to 8.00 | 7.00 to 8.00 |  | 6.00 to 7.00 | 6.00 to 7.00 | 8.00 to 9.00 | 7.00 to 8.00 | 6.00 to 7.00 | 7.00 to 8.00 | 7.00 to 8.00 | 6.00 to 7.00
CC[C@@]1(O)C(=O)OCc2c1cc1n(c2=O)Cc2c-1nc1cc3c(cc1c2CNC(=O)[C@@H](N)CCC(=O)O)OCO3 [Compound 4e] |  | 6.00 to 7.00 |  | 6.00 to 7.00 | 6.00 to 7.00 |  |  |  |  | 6.00 to 7.00 | 
CC[C@@]1(O)C(=O)OCc2c1cc1n(c2=O)Cc2c-1nc1cc3c(cc1c2CNC)OCO3 [Compound 5] | 8.00 to 9.00 | 8.00 to 9.00 | 7.00 to 8.00 | 7.00 to 8.00 | 8.00 to 9.00 | 8.00 to 9.00 | 8.00 to 9.00 | 7.00 to 8.00 | 8.00 to 9.00 | 8.00 to 9.00 | 8.00 to 9.00
CCNCc1c2c(nc3cc4c(cc13)OCO4)-c1cc3c(c(=O)n1C2)COC(=O)[C@]3(O)CC [Compound 5a] | 8.00 to 9.00 | 8.00 to 9.00 | 8.00 to 9.00 | 8.00 to 9.00 | 8.00 to 9.00 | 8.00 to 9.00 | 8.00 to 9.00 | 7.00 to 8.00 | 8.00 to 9.00 | 8.00 to 9.00 | 8.00 to 9.00
CC[C@@]1(O)C(=O)OCc2c1cc1n(c2=O)Cc2c-1nc1cc3c(cc1c2CN(C)C1CCCC[C@H]1NC)OCO3 (stereo partly shown) [Compound 5aa] | 7.00 to 8.00 | 8.00 to 9.00 | 6.00 to 7.00 | 6.00 to 7.00 | 7.00 to 8.00 | 7.00 to 8.00 | 7.00 to 8.00 | 6.00 to 7.00 | 7.00 to 8.00 | 7.00 to 8.00 | 7.00 to 8.00
CC[C@@]1(O)C(=O)OCc2c1cc1n(c2=O)Cc2c-1nc1cc3c(cc1c2CNc1ccccc1)OCO3 [Compound 5b] | 8.00 to 9.00 | 9.00 to 10.00 | 8.00 to 9.00 | 8.00 to 9.00 | 9.00 to 10.00 | 8.00 to 9.00 | 9.00 to 10.00 | 7.00 to 8.00 | 8.00 to 9.00 | 7.00 to 8.00 | 8.00 to 9.00
CC[C@@]1(O)C(=O)OCc2c1cc1n(c2=O)Cc2c-1nc1cc3c(cc1c2CNC(C)C)OCO3 [Compound 5c] | 8.00 to 9.00 | 9.00 to 10.00 | 8.00 to 9.00 | 8.00 to 9.00 | 8.00 to 9.00 | 8.00 to 9.00 | 8.00 to 9.00 | 8.00 to 9.00 | 8.00 to 9.00 | 8.00 to 9.00 | 8.00 to 9.00
